The text below walks through data of patent publication US6677277B1, “Substituted sulphonyl amino(thio)carbonyl compounds and their use as herbicides” (Bayer Aktiengesellschaft, priority 1996, dated 2004).

Common to all, as to assay type: in vivo
For data set [1], the system named is weeds. As to the kind of experiment: Pre-emergence test. Conditions: cf. Tables A-1 to A-5. The protocol:
(§1) Pre-emergence Test Solvent: 5 parts by weight of acetone Emulsifier: 1 part by weight of alkylaryl polyglycol ether To produce a suitable preparation of active compound, 1 part by weight of active compound is mixed with the stated amount of solvent, the stated amount of emulsifier is added and the concentrate is diluted with water to the desired concentration. Seeds of the test plants are sown in normal soil. After about 24 hours, the soil is sprayed with the preparation of the active compound in such a way as to apply the particular amounts of active compound desired per unit area The concentration of the spray liquor is chosen so that the particular amounts of active compound desired are applied in 1000 l of water/ha. After three weeks, the degree of damage to the plants is rated in % damage in comparison to the development of the untreated control. The figures denote: [table]

Data set [2] has as its system Solanum. As to the kind of experiment: Pre-emergence test/greenhouse. Conditions: after three weeks. The protocol:
as §1

A further data set has as its system Soya beans. Put plainly: Pre-emergence test/greenhouse. Conditions: 125 g ai./ha, after three weeks. The procedure:
as §1

Data set [3] concerns Matricaria. Put plainly: Pre-emergence test/greenhouse. Conditions: 125 g ai./ha, after three weeks. The protocol: as §1
Data set [4] deals with Amaranthus. Put plainly: Pre-emergence test/greenhouse. The following applies: after three weeks. The procedure: as §1
The next data set relates to Alopecurus. Put plainly: Pre-emergence test/greenhouse. The following applies: after three weeks. The protocol: as §1
The next data set relates to Chenopodium. As to the kind of experiment: Pre-emergence test/greenhouse. Conditions: after three weeks. The procedure:
as §1

The next data set concerns Lolium. Put plainly: Pre-emergence test/greenhouse. The following applies: after three weeks. The procedure: as §1
A further data set relates to Maize. Put plainly: Pre-emergence test/greenhouse. Conditions: 125 g ai./ha, after three weeks. The protocol: as §1
The test system of data set [5] is Sorghum. As to the kind of experiment: Pre-emergence test/greenhouse. Conditions: after three weeks. The protocol:
as §1

Data set [6] deals with Wheat. Put plainly: Pre-emergence test/greenhouse. The following applies: 60 g ai./ha, after three weeks. The procedure: as §1
The test system of the next data set is Veronica. As to the kind of experiment: Pre-emergence test/greenhouse. The following applies: 60 g ai./ha, after three weeks. The protocol: as §1
In data set [7] the test system is weeds. Put plainly: Post-emergence test. Conditions: cf. Tables B-1 to B-4. The protocol:
as §1, with “Post-emergence” for “Pre-emergence”, “Test plants which have a height” for “Seeds”, “5-15 cm” for “the test plants”, “are” for “are sown in normal soil. After about 24 hours, the soil is”, “area.” for “area”

Data set [8] relates to Solanum. Put plainly: Post-emergence test/greenhouse. The following applies: for Solanum, % damage: 60 g ai./ha, rated after three weeks vs untreated control. The procedure: as §1, with “Post-emergence” for “Pre-emergence”, “Test plants which have a height” for “Seeds”, “5-15 cm” for “the test plants”, “are” for “are sown in normal soil. After about 24 hours, the soil is”, “area.” for “area”

In the next data set the test system is Xanthium. As to the kind of experiment: Post-emergence test/greenhouse. The following applies: for Xanthium, % damage: 60 g ai./ha, rated after three weeks vs untreated control. The procedure: as §1, with “Post-emergence” for “Pre-emergence”, “Test plants which have a height” for “Seeds”, “5-15 cm” for “the test plants”, “are” for “are sown in normal soil. After about 24 hours, the soil is”, “area.” for “area”

In data set [9] the test system is Wheat. As to the kind of experiment: Post-emergence test/greenhouse. The following applies: for Wheat, % damage: 60 g ai./ha, rated after three weeks vs untreated control. The protocol: as §1, with “Post-emergence” for “Pre-emergence”, “Test plants which have a height” for “Seeds”, “5-15 cm” for “the test plants”, “are” for “are sown in normal soil. After about 24 hours, the soil is”, “area.” for “area”

A further data set has as its system Stellaria. As to the kind of experiment: Post-emergence test/greenhouse. Conditions: 60 g ai./ha, rated after three weeks vs untreated control. The procedure:
as §1, with “Post-emergence” for “Pre-emergence”, “Test plants which have a height” for “Seeds”, “5-15 cm” for “the test plants”, “are” for “are sown in normal soil. After about 24 hours, the soil is”, “area.” for “area”

The next data set concerns Ipomoea. Put plainly: Post-emergence test/greenhouse. The following applies: 60 g ai./ha, rated after three weeks vs untreated control. The protocol: as §1, with “Post-emergence” for “Pre-emergence”, “Test plants which have a height” for “Seeds”, “5-15 cm” for “the test plants”, “are” for “are sown in normal soil. After about 24 hours, the soil is”, “area.” for “area”
The test system of data set [10] is Sorghum. As to the kind of experiment: Post-emergence test/greenhouse. The following applies: 60 g ai./ha, rated after three weeks vs untreated control. The protocol:
as §1, with “Post-emergence” for “Pre-emergence”, “Test plants which have a height” for “Seeds”, “5-15 cm” for “the test plants”, “are” for “are sown in normal soil. After about 24 hours, the soil is”, “area.” for “area”

Data set [11] concerns Amaranthus. As to the kind of experiment: Post-emergence test/greenhouse. The following applies: for Amaranthus, % damage: Table B-4, post-emergence, 60 g ai./ha, rated after three weeks vs untreated control. The protocol: as §1, with “Post-emergence” for “Pre-emergence”, “Test plants which have a height” for “Seeds”, “5-15 cm” for “the test plants”, “are” for “are sown in normal soil. After about 24 hours, the soil is”, “area.” for “area”

Another data set deals with Echinochloa. As to the kind of experiment: Post-emergence test/greenhouse. The following applies: Table B-4, post-emergence, 60 g ai./ha, rated after three weeks vs untreated control. The procedure: as §1, with “Emulsifier:” for “Pre-emergence Test Solvent: 5 parts by weight of acetone Emulsifier:”, “Test plants which have a height” for “Seeds”, “5-15 cm” for “the test plants”, “are” for “are sown in normal soil. After about 24 hours, the soil is”, “area.” for “area”, “control.” for “control. The figures denote: [table]”

Data set [12] deals with Matricaria. As to the kind of experiment: Post-emergence test/greenhouse. The following applies: 125 g ai./ha, after three weeks. The procedure:
as §1, with “Post-emergence” for “Pre-emergence”, “Test plants which have a height” for “Seeds”, “5-15 cm” for “the test plants”, “are” for “are sown in normal soil. After about 24 hours, the soil is”, “area.” for “area”

The mark [13] stands for this setting: post-emergence, 125 g ai./ha, after three weeks.

Consider `CCOc1nn(C(=O)NS(=O)(=O)c2c(OC(F)(F)F)cccc2SC(C)C)c(=O)n1C` [Example 25], for which the activity against weeds result in the data set with weeds [1] was “very strong activity”. The “% damage, Solanum” value with Solanum [2] (125 g ai./ha) was determined as 100%. For the same molecule, the “% damage, Soya beans” value in the data set on Soya beans came out at 20%. Besides, the “% damage, Matricaria” value in the data set on Matricaria [3] came out at 95%. Moreover, in the data set with Amaranthus [4] (125 g ai./ha), the “% damage, Amaranthus” value was determined as 95%. The “% damage, Alopecurus” value with Alopecurus (125 g ai./ha) was found to be 100%. In addition, in the data set with Chenopodium (125 g ai./ha), the “% damage, Chenopodium” value is 100%. The “% damage, Lolium” value in the data set on Lolium (125 g ai./ha) was determined as 70%. Moreover, the “% damage, Maize” value with Maize was determined as 0%. In the data set with Sorghum [5] (125 g ai./ha), the “% damage, Sorghum” value is reported as 80%.

For the molecule `CCOc1nn(C(=O)NS(=O)(=O)c2c(OC(F)(F)F)cccc2SC)c(=O)n1C` [Example 35], the activity against weeds result in the data set with weeds [1] was “very strong activity”. The “% damage, Solanum” value with Solanum [2] (60 g ai./ha) stood at 95%. Moreover, the “% damage, Amaranthus” value in the data set on Amaranthus [4] (60 g ai./ha) is 100%. In the data set on Wheat [6], the “% damage, Wheat” value is on record as 10%. In addition, in the data set on Alopecurus (60 g ai./ha), the “% damage, Alopecurus” value worked out at 100%. In addition, in the data set with Chenopodium (60 g ai./ha), the “% damage, Chenopodium” value was found to be 100%. Also, the “% damage, Lolium” value in the data set with Lolium (60 g ai./ha) was determined as 95%. In addition, the “% damage, Sorghum” value in the data set on Sorghum [5] (60 g ai./ha) is listed as 90%. Moreover, in the data set with Veronica, the “% damage, Veronica” value is reported as 100%.

For `CCSc1cccc(OC(F)(F)F)c1S(=O)(=O)NC(=O)n1nc(OC)n(C)c1=O` [Example 40], the activity against weeds entry in the data set on weeds [7] and with weeds [1] was “very strong activity” in each case. For the same molecule, in the data set on Solanum [8] (post-emergence), the “Solanum, % damage” value is given as 95%. In the data set with Xanthium (post-emergence), the “Xanthium, % damage” value is on record as 100%. The “Wheat, % damage” value with Wheat [9] stood at 20%. In addition, the “Stellaria, % damage” value in the data set with Stellaria worked out at 95%. In the data set with Ipomoea, the “Ipomoea, % damage” value is 90%. The “Sorghum, % damage” value in the data set on Sorghum [10] (post-emergence) is given as 80%. Besides, the “% damage, Solanum” value in the data set on Solanum [2] (125 g ai./ha) was found to be 100%. Besides, in the data set on Soya beans, the “% damage, Soya beans” value was determined as 20%. Besides, the “% damage, Matricaria” value in the data set on Matricaria [3] stood at 100%. In the data set on Amaranthus [4] (125 g ai./ha), the “% damage, Amaranthus” value is listed as 100%. The “% damage, Alopecurus” value in the data set with Alopecurus (125 g ai./ha) is 100%. Besides, the “% damage, Chenopodium” value in the data set with Chenopodium (125 g ai./ha) was found to be 100%. In the data set on Lolium (125 g ai./ha), the “% damage, Lolium” value is reported as 95%. In addition, the “% damage, Maize” value in the data set with Maize was 5%. For the same molecule, the “% damage, Sorghum” value in the data set on Sorghum [5] (125 g ai./ha) is given as 100%.

Regarding `CCSc1cccc(OC(F)(F)F)c1S(=O)(=O)NC(=O)n1nc(SC)n(C)c1=O` [Example 41], the activity against weeds result in the data set on weeds [1] is “very strong activity”. For the same molecule, the “% damage, Solanum” value with Solanum [2] (125 g ai./ha) came out at 100%. Moreover, the “% damage, Soya beans” value in the data set with Soya beans was 20%. The “% damage, Matricaria” value in the data set on Matricaria [3] turned out to be 100%. The “% damage, Amaranthus” value in the data set with Amaranthus [4] (125 g ai./ha) was 100%. Further, in the data set with Alopecurus (125 g ai./ha), the “% damage, Alopecurus” value is reported as 100%. For the same molecule, the “% damage, Chenopodium” value in the data set with Chenopodium (125 g ai./ha) came out at 100%. The “% damage, Lolium” value with Lolium (125 g ai./ha) came to 80%. Moreover, the “% damage, Maize” value with Maize worked out at 10%. Besides, the “% damage, Sorghum” value with Sorghum [5] (125 g ai./ha) turned out to be 90%.

Consider `CCc1nn(C(=O)NS(=O)(=O)c2c(C)cccc2SC)c(=O)n1C` [Example 49], for which the activity against weeds entry with weeds [7] was “very strong activity”. Also, the “Solanum, % damage” value is 90% in the data set with Solanum [8] (Table B-4, post-emergence) and 90% in the data set with Solanum [8] (post-emergence). For the same molecule, the “Xanthium, % damage” value turned out to be 95% in the data set on Xanthium (Table B-4, post-emergence) and 95% with Xanthium (post-emergence). Also, in the data set on Amaranthus [11], the “Amaranthus, % damage” value is 95%. For the same molecule, the “Wheat, % damage” value with Wheat [9] is on record as 20%. For the same molecule, the “Stellaria, % damage” value in the data set with Stellaria turned out to be 70%. Moreover, in the data set on Ipomoea, the “Ipomoea, % damage” value is on record as 90%. Moreover, the “Sorghum, % damage” value is 90% with Sorghum [10] (Table B-4, post-emergence) and 90% in the data set with Sorghum [10] (post-emergence).

In the case of `COc1nn(C(=O)NS(=O)(=O)c2c(SC)cccc2SC)c(=O)n1C` [Example 50], the activity against weeds entry with weeds [7] was “very strong activity”. Further, the “Solanum, % damage” value in the data set on Solanum [8] (Table B-4, post-emergence) amounted to 95%. Also, in the data set on Xanthium (Table B-4, post-emergence), the “Xanthium, % damage” value is reported as 95%. For the same molecule, the “Amaranthus, % damage” value in the data set on Amaranthus [11] was found to be 95%. In addition, the “Sorghum, % damage” value with Sorghum [10] (Table B-4, post-emergence) turned out to be 95%. Moreover, in the data set on Echinochloa, the “Echinochloa, % damage” value is on record as 80%.

Turning to `CSc1cccc(SC)c1S(=O)(=O)NC(=O)n1nc(SC)n(C)c1=O` [Example 51], the activity against weeds entry with weeds [7] is recorded as “very strong activity”. In addition, the “% damage, Solanum” value in the data set on Solanum [8] (setting [13]) amounted to 95%. In the data set with Xanthium (setting [13]), the “% damage, Xanthium” value amounted to 95%. Also, the “% damage, Matricaria” value in the data set on Matricaria [12] was 95%. In addition, the “% damage, Amaranthus” value in the data set on Amaranthus [11] (setting [13]) is given as 95%. For the same molecule, the “% damage, Wheat” value in the data set on Wheat [9] (125 g ai./ha, after three weeks) came to 20%.
